Laboratory results: US20100267561A1, “HERBICIDAL PYRIDAZINONE DERIVATIVES” (priority 2007, published 2010)

Legend:
Assay type in all cases: in vivo
[1] = tested on: barnyardgrass (Echinochloa crus-galli); assay: Test A pre-/postemergence plant response
How it was run: (§1)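 Scores reflect visual plant injury relative to untreated controls on a 0–100 scale, recorded approximately 10 days after simultaneous preemergence soil spraying and postemergence spraying of one- to two-leaf seedlings grown in loam–sand.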

corn (Zea mays) = assay: Test A pre-/postemergence plant response
How it was run: as §1

[2] = tested on: giant foxtail (Setaria faberi); assay: Test A pre-/postemergence plant response
How it was run: as §1

[3] = tested on: large crabgrass (Digitaria sanguinalis); assay: Test A pre-/postemergence plant response
How it was run: as §1

[4] = tested on: morningglory (Ipomoea coccinea); assay: Test A pre-/postemergence plant response
How it was run: as §1

[5] = tested on: pigweed (Amaranthus retroflexus); assay: Test A pre-/postemergence plant response
How it was run: as §1

[6] = tested on: velvetleaf (Abutilon theophrasti); assay: Test A pre-/postemergence plant response
How it was run: as §1

[7] = tested on: wheat (Triticum aestivum); assay: Test A pre-/postemergence plant response
How it was run: as §1

[8] = tested on: canarygrass (Phalaris minor); assay: Test B postemergence plant response; conditions: for Canarygrass plant response rating: 8 g ai/ha, postemergence, 0-100 scale; for Plant response rating, Canarygrass: Postemergence
How it was run: (§2)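 Following treatment of plants 2 to 18 cm high after emergence, pots were held under glass for 13 to 15 days; efficacy was then graded visually, 100 denoting complete control and a dash no test result.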

[9] = tested on: chickweed (Stellaria media); assay: Test B postemergence plant response; conditions: for Chickweed plant response rating: 8 g ai/ha, postemergence, 0-100 scale; for Plant response rating, Chickweed: Postemergence
How it was run: as §2

[10] = tested on: windgrass (Apera spica-venti); assay: Test B postemergence plant response; conditions: for Windgrass plant response rating: postemergence, 0-100 scale; for Plant response rating, Windgrass: Postemergence
How it was run: as §2

[11] = tested on: winter barley (Hordeum vulgare); assay: Test B postemergence plant response; conditions: for Barley plant response rating: 8 g ai/ha, postemergence, 0-100 scale; for Plant response rating, Barley: Postemergence, scale 0 to 100, 0 no effect, 100 complete control
How it was run: as §2

[12] = Postemergence, 31 g ai/ha, 0 to 100 scale, 0 no effect, 100 complete control
[13] = Postemergence, 125 g ai/ha, 0 to 100 scale, 0 no effect, 100 complete control
[14] = Preemergence, 31 g ai/ha, 0 to 100 scale, 0 is no effect, 100 is complete control
[15] = Preemergence, 125 g ai/ha, 0 to 100 scale (0 no effect, 100 complete control)
[16] = 62 g ai/ha, scale 0 to 100, 0 no effect, 100 complete control

## CCCC(=O)Oc1cnn(C)c(=O)c1-n1nc(-c2ccc(Cl)cc2)cc1C [Compound 56]
[1]; [12]
  Plant response rating, Barnyardgrass: 100
[1]; [13]
  Plant response rating, Barnyardgrass: 100
[1]; [14]
  Plant response rating, Barnyardgrass: 80
[1]; [15]
  Plant response rating, Barnyardgrass: 100
Corn (Zea mays); [12]
  Plant response rating, Corn: 90
Corn (Zea mays); [13]
  Plant response rating, Corn: 100
Corn (Zea mays); [14]
  Plant response rating, Corn: 40
Corn (Zea mays); [15]
  Plant response rating, Corn: 80
[2]; [12]
  Plant response rating, Foxtail, Giant: 100
[2]; [13]
  Plant response rating, Foxtail, Giant: 100
[2]; [14]
  Plant response rating, Foxtail, Giant: 90
[2]; [15]
  Plant response rating, Foxtail, Giant: 100
[3]; [12]
  Plant response rating, Crabgrass, Large: 80
[3]; [13]
  Plant response rating, Crabgrass, Large: 100
[3]; [14]
  Plant response rating, Crabgrass, Large: 70
[3]; [15]
  Plant response rating, Crabgrass, Large: 100
[4]; [12]
  Plant response rating, Morningglory: 0
[4]; [13]
  Plant response rating, Morningglory: 0
[4]; [14]
  Plant response rating, Morningglory: 0
[4]; [15]
  Plant response rating, Morningglory: 0
[5]; [12]
  Plant response rating, Pigweed: 0
[5]; [13]
  Plant response rating, Pigweed: 0
[5]; [14]
  Plant response rating, Pigweed: 0
[5]; [15]
  Plant response rating, Pigweed: 0
[6]; [12]
  Plant response rating, Velvetleaf: 0
[6]; [13]
  Plant response rating, Velvetleaf: 0
[6]; [14]
  Plant response rating, Velvetleaf: 0
[6]; [15]
  Plant response rating, Velvetleaf: 0
[7]; [12]
  Plant response rating, Wheat: 70
[7]; [13]
  Plant response rating, Wheat: 80
[7]; [14]
  Plant response rating, Wheat: 20
[7]; [15]
  Plant response rating, Wheat: 80
[8]
  Canarygrass plant response rating: 50
[8]; 16 g ai/ha, scale 0 to 100
  Plant response rating, Canarygrass: 85
[8]; 31 g ai/ha, scale 0 to 100
  Plant response rating, Canarygrass: 90
[8]; [16]
  Plant response rating, Canarygrass: 95
[9]
  Chickweed plant response rating: 0
[9]; 16 g ai/ha, scale 0 to 100
  Plant response rating, Chickweed: 0
[9]; 31 g ai/ha, scale 0 to 100
  Plant response rating, Chickweed: 0
[9]; [16]
  Plant response rating, Chickweed: 0
[10]; 8 g ai/ha
  Windgrass plant response rating: 0
[10]; 16 g ai/ha, scale 0 to 100
  Plant response rating, Windgrass: 0
[10]; 31 g ai/ha, scale 0 to 100
  Plant response rating, Windgrass: 20
[10]; [16]
  Plant response rating, Windgrass: 20
[11]
  Barley plant response rating: 0
[11]; 16 g ai/ha
  Plant response rating, Barley: 40
[11]; 31 g ai/ha
  Plant response rating, Barley: 50
[11]; 62 g ai/ha
  Plant response rating, Barley: 75

## Cc1nn(C)c(=O)c(-n2nc(-c3ccc(Cl)cc3)cc2Cl)c1O [Compound 59]
[1]; [12]
  Plant response rating, Barnyardgrass: 90
[1]; [13]
  Plant response rating, Barnyardgrass: 100
[1]; [14]
  Plant response rating, Barnyardgrass: 90
[1]; [15]
  Plant response rating, Barnyardgrass: 100
Corn (Zea mays); [12]
  Plant response rating, Corn: 30
Corn (Zea mays); [13]
  Plant response rating, Corn: 70
Corn (Zea mays); [14]
  Plant response rating, Corn: 0
Corn (Zea mays); [15]
  Plant response rating, Corn: 60
[2]; [12]
  Plant response rating, Foxtail, Giant: 90
[2]; [13]
  Plant response rating, Foxtail, Giant: 90
[2]; [14]
  Plant response rating, Foxtail, Giant: 70
[2]; [15]
  Plant response rating, Foxtail, Giant: 90
[3]; [12]
  Plant response rating, Crabgrass, Large: 50
[3]; [13]
  Plant response rating, Crabgrass, Large: 90
[3]; [14]
  Plant response rating, Crabgrass, Large: 20
[3]; [15]
  Plant response rating, Crabgrass, Large: 50
[4]; [12]
  Plant response rating, Morningglory: 0
[4]; [13]
  Plant response rating, Morningglory: 0
[4]; [14]
  Plant response rating, Morningglory: 0
[4]; [15]
  Plant response rating, Morningglory: 0
[5]; [12]
  Plant response rating, Pigweed: 0
[5]; [13]
  Plant response rating, Pigweed: 0
[5]; [14]
  Plant response rating, Pigweed: 0
[5]; [15]
  Plant response rating, Pigweed: 0
[6]; [12]
  Plant response rating, Velvetleaf: 0
[6]; [13]
  Plant response rating, Velvetleaf: 0
[6]; [14]
  Plant response rating, Velvetleaf: 0
[6]; [15]
  Plant response rating, Velvetleaf: 0
[7]; [12]
  Plant response rating, Wheat: 0
[7]; [13]
  Plant response rating, Wheat: 60
[7]; [14]
  Plant response rating, Wheat: 0
[7]; [15]
  Plant response rating, Wheat: 50
[8]
  Canarygrass plant response rating: 0
[8]; 16 g ai/ha, scale 0 to 100
  Plant response rating, Canarygrass: 40
[8]; 31 g ai/ha, scale 0 to 100
  Plant response rating, Canarygrass: 55
[8]; [16]
  Plant response rating, Canarygrass: 70
[9]
  Chickweed plant response rating: 0
[9]; 16 g ai/ha, scale 0 to 100
  Plant response rating, Chickweed: 0
[9]; 31 g ai/ha, scale 0 to 100
  Plant response rating, Chickweed: 0
[9]; [16]
  Plant response rating, Chickweed: 0
[10]; 8 g ai/ha
  Windgrass plant response rating: 0
[10]; 16 g ai/ha, scale 0 to 100
  Plant response rating, Windgrass: 0
[10]; 31 g ai/ha, scale 0 to 100
  Plant response rating, Windgrass: 10
[10]; [16]
  Plant response rating, Windgrass: 50
[11]
  Barley plant response rating: 0
[11]; 16 g ai/ha
  Plant response rating, Barley: 0
[11]; 31 g ai/ha
  Plant response rating, Barley: 20
[11]; 62 g ai/ha
  Plant response rating, Barley: 50

## CCc1cc(-c2ccc(C(F)(F)F)cc2)nn1-c1c(O)c(OC)nn(C)c1=O [Compound 66]
[1]; [12]
  Plant response rating, Barnyardgrass: 100
[1]; [13]
  Plant response rating, Barnyardgrass: 100
[1]; [14]
  Plant response rating, Barnyardgrass: 10
[1]; [15]
  Plant response rating, Barnyardgrass: 100
Corn (Zea mays); [12]
  Plant response rating, Corn: 100
Corn (Zea mays); [13]
  Plant response rating, Corn: 100
Corn (Zea mays); [14]
  Plant response rating, Corn: 40
Corn (Zea mays); [15]
  Plant response rating, Corn: 80
[2]; [12]
  Plant response rating, Foxtail, Giant: 100
[2]; [13]
  Plant response rating, Foxtail, Giant: 100
[2]; [14]
  Plant response rating, Foxtail, Giant: 90
[2]; [15]
  Plant response rating, Foxtail, Giant: 100
[3]; [12]
  Plant response rating, Crabgrass, Large: 100
[3]; [13]
  Plant response rating, Crabgrass, Large: 100
[3]; [14]
  Plant response rating, Crabgrass, Large: 0
[3]; [15]
  Plant response rating, Crabgrass, Large: 70
[4]; [12]
  Plant response rating, Morningglory: 0
[4]; [13]
  Plant response rating, Morningglory: 0
[4]; [14]
  Plant response rating, Morningglory: 0
[4]; [15]
  Plant response rating, Morningglory: 0
[5]; [12]
  Plant response rating, Pigweed: 0
[5]; [13]
  Plant response rating, Pigweed: 0
[5]; [14]
  Plant response rating, Pigweed: 0
[5]; [15]
  Plant response rating, Pigweed: 0
[6]; [12]
  Plant response rating, Velvetleaf: 0
[6]; [13]
  Plant response rating, Velvetleaf: 0
[6]; [14]
  Plant response rating, Velvetleaf: 0
[6]; [15]
  Plant response rating, Velvetleaf: 0
[7]; [12]
  Plant response rating, Wheat: 90
[7]; [13]
  Plant response rating, Wheat: 100
[7]; [14]
  Plant response rating, Wheat: 60
[7]; [15]
  Plant response rating, Wheat: 90
[8]
  Canarygrass plant response rating: 40
[8]; 16 g ai/ha, scale 0 to 100
  Plant response rating, Canarygrass: 90
[8]; 31 g ai/ha, scale 0 to 100
  Plant response rating, Canarygrass: 95
[9]
  Chickweed plant response rating: 0
[9]; 16 g ai/ha, scale 0 to 100
  Plant response rating, Chickweed: 0
[9]; 31 g ai/ha, scale 0 to 100
  Plant response rating, Chickweed: 0
[9]; [16]
  Plant response rating, Chickweed: 0
[10]; 8 g ai/ha
  Windgrass plant response rating: 90
[10]; 16 g ai/ha
  Windgrass plant response rating: 100
[10]; 31 g ai/ha, scale 0 to 100
  Plant response rating, Windgrass: 100
[10]; [16]
  Plant response rating, Windgrass: 100
[11]
  Barley plant response rating: 90
[11]; 16 g ai/ha
  Plant response rating, Barley: 98
[11]; 31 g ai/ha
  Plant response rating, Barley: 100
